Laboratory results from BindingDB's records for patent US12552799 (Nxera Pharma, 2026).

Assays:
Adenosine receptor A1 = target: T1, Adenosine receptor A1 (Homo sapiens, UniProt P30542); assay: Adenosine Receptor Binding Assay
T1 sequence (P30542 whole entry): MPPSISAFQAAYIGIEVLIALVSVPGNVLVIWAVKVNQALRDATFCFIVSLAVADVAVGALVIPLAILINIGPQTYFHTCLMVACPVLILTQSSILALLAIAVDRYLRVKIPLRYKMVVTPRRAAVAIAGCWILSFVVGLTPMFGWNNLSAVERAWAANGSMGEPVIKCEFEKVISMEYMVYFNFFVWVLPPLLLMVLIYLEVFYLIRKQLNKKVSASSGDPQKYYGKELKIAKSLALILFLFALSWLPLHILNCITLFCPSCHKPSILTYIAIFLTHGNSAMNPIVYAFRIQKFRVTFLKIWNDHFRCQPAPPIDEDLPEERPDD
Method: (§1) Inhibition binding assays were performed using 0.2 μg of membranes prepared from […] cells infected with BacMam human adenosine A2A receptor or 1.4 μg of membranes […] receptor. Membranes were incubated in 50 mM Tris-HCl (HEK293-hA2A; pH 7.4) or 50 mM Tris-HCl, 100 mM NaCl, 10 mM MgCl2 (CHO-hA1; pH 7.4) in the presence of varying concentrations of test compound and 1 nM [3H]ZM241385 (HEK293-hA2A) or [3H]DPCPX (CHO-hA1) at 25° C. for 1 h. The assay was then terminated by rapid filtration onto GF/B grade Unifilter plates using a TomTec cell harvester, followed by 5×0.5 ml washes with ddH2O. Nonspecific binding was defined in the presence of 1 μM CGS15943 (HEK293-hA2A) or 1 μM DPCPX (CHO-hA1). Bound radioactivity was determined by liquid scintillation counting and inhibition curves were analysed using a four-parameter logistic equation.

Adenosine receptor A2a = Adenosine receptor A2a (Homo sapiens, UniProt P29274); assay: Adenosine Receptor Binding Assay
Chain of Adenosine receptor A2a (P29274 whole entry): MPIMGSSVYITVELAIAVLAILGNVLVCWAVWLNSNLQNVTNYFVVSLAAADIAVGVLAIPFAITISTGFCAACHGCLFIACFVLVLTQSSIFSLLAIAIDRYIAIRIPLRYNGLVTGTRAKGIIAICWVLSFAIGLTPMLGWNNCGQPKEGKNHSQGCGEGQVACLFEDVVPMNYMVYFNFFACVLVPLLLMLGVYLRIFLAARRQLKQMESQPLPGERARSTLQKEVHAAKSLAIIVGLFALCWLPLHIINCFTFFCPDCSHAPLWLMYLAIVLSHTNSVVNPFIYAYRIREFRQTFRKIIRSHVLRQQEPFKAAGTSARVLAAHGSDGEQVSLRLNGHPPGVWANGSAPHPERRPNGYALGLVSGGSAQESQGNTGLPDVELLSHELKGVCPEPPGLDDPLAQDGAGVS
Method: as §1

| SMILES | Ki (Adenosine receptor A1) [nM] | Ki (Adenosine receptor A2a) [nM] |
| --- | --- | --- |
| C[C@@H]1CN(c2c(-c3ccccc3)nc(N)n3c(=O)n(C[C@@H]4CCCN4C)nc23)C[C@H](C)O1 [US12552799, Example 1-7] | 2000 | 158 |
| C[C@@H]1CN(c2c(-c3ccccc3)nc(N)n3c(=O)n(CCCF)nc23)C[C@H](C)O1 [US12552799, Example 1-2] | > 3160 | 158 |
| Cc1cc(-c2c(-c3ccc(F)cc3)nc(N)n3c(=O)n(Cc4ccc(Cl)cn4)nc23)cc2ocnc12 [US12552799, Example 4-2] | 63.1 | 0.158 |
| Cc1cc(-c2c(-c3ccccc3)nc(N)n3c(=O)n(Cc4ccc(F)cn4)nc23)cc2c1N=NC2 [US12552799, Example 4-4] | 25.1 | 0.251 |
| C[C@@H]1CN(c2c(-c3ccccc3)nc(N)n3c(=O)n(C[C@H]4CCCO4)nc23)C[C@H](C)O1 [US12552799, Example 1-8] | > 2000 | 10 |
| CCCn1nc2c(N3C[C@@H](C)O[C@@H](C)C3)c(-c3ccccc3)nc(N)n2c1=O [US12552799, Example 1-4] | > 3160 | 63.1 |
| Cc1ocnc1Cn1nc2c(-c3cc(C)c4ncoc4c3)c(-c3ccccc3)nc(N)n2c1=O [US12552799, Example 4-6] | 7.94 | 0.079 |
| Cc1cc(-c2c(-c3ccccc3)nc(N)n3c(=O)n(Cc4ccc(F)cn4)nc23)cc(C)c1O [US12552799, Example 3-1] | 100 | 0.631 |
